Experimental data from patent publication US20260256699A1, “BIOACTIVE MICROSPHERE AND METHOD FOR PREPARATION THEREOF” (priority 2021, published 2026).

Assay: Stability of vitamin D2 in milk boiled twice (relative assay)
Format: physicochemical
Protocol: In an example, the effect of bioactive microsphere of the present disclosure on the stability of bioactive, when subjected to the deteriorating effect of processing parameter such as heating, was studied. The stability of vitamin D2 was determined by heating the milk containing the bioactive microsphere as prepared in Example 1, and the milk containing pure vitamin D2, i.e., control vitamin D2.
For the purpose of this example, both the vitamin D2 containing milk were boiled twice, and the amount of vitamin D2 was determined after second boiling, as shown in Table 1. The difference in the amount of vitamin D2 in the milk before boiling, and after the second boiling, illustrated the deteriorating effect of heat on the vitamin D2.

- Stability of vitamin D2 in milk on boiling (in words) (milk, boiled two times): deactivated on boiling
- % Relative assay Before boiling (%) (vitamin D2 in milk, before boiling): 100%
- % Degradation (vitamin D2 in milk, before boiling vs after second boiling): 65%
- % Relative assay After second boiling (%) (vitamin D2 in milk, boiled twice, after second boiling): 35%
Compound: C=C1CC[C@H](O)C/C1=C/C=C1\CCC[C@]2(C)[C@@H]([C@H](C)/C=C/[C@H](C)C(C)C)CC[C@@H]12 [Control vitamin D2, vitamin D2]
